# Source: patent US20100113599A1, “AMPHIPATHIC CARBOXYLATES FOR THE TREATMENT OF IMMUNE-RELATED DISORDERS” (Syndromex Ltd. c/o Yissum Research Development Company, of, priority 2007, published 2010)
# Assays:
# [1] = tested on: STAT3; experiment: LIF- or IL-6-induced STAT3 phosphorylation in HepG2 cells (Western blot); format: cell-based, human
# Experimental: MEDICA drugs inhibit LIF-induced STAT3 phosphorylation. HepG2 cells were incubated with M16αα (200 μM) for 17 and 24 h. At each time point LIF (20 ng/ml) was added for the last 20 minutes (for protein) or for the last 3 h (for mRNA). Western blots of cell lysates were reacted with anti gp130 and anti P-STAT3 (Y705) antibodies and normalized by β-actin.
# MEDICA drugs inhibit IL-6-induced STAT3 phosphorylation. HepG2 cells were incubated for 40 h with […] M16αα. IL-6 (20 ng/ml) was added for the last 15 h. Western blots of cell lysates were reacted, with anti GP-130, anti STAT3, anti P-STAT3 (Y705) and anti P-STAT3 (S727) antibodies and normalized by β-actin. Abbreviations: cont. (control), dim. (dimer), Tot. (total), mono. (monomer).
# The examined effect of MEDICA drugs on expression of APP, was further analyzed by analyzing the effect of M16αα on downstream elements in the signaling pathway leading to expression of APP. Signal Transducers and Activators of Transcription 3 (STAT3), is a transcription factor phosphorylated by JAK kinases in response to cytokine activation of a cell surface receptor tyrosine kinases. Cytokines that activate STAT3 include growth hormone, IL-6 family cytokines, Oncostatin, LIF, CNTF and G-CSF, Leptin and others. As illustrated by FIG. 1, upon cytokine activation, the STAT3 proteins dimerize and are localized to the nucleus where they activate transcription of APP as well as of other cytokine-responsive genes coding for cell survival, growth and proliferation. Therefore, the inventors next examined whether the effect of MEDICA drugs on the expression of APP is a result of interfering with STAT3 transcription activity or whether MEDICA drugs are involved in a more upstream element of the transduction pathway such as the gp130 receptor. Since dimerization and activation of STAT3 is dependent on its phosphorylation in both, tyrosine 705 (pY^705) and serine 727 (pS^727) residues, the inventors next examined the effect of M16αα on the phosphorylation of STAT3. Thus, HepG2 cells were incubated with M16αα (200 μM) for 17 and 24 h. […]
# [2] = tested on: fibrinogen α mRNA; experiment: Fibrinogen mRNA expression in IL-6-stimulated HepG2 cells (real time RT-PCR); format: cell-based, human; conditions: 200 mM M16αα 40 h, control as well as IL-6 (20 ng/ml, last 15 h) induced cells, normalized by GAPDH
# Experimental: HepG2 cells were incubated for 40 h with […] M16αα. IL-6 (20 ng/ml) was added for the last 15 h. Total RNA was prepared and was analyzed by real time RT-PCR for fibrinogen a mRNA. Transcript levels were normalized by GAPDH.
# The hypolipidemic effect of both M16ααα and/or M16ββ (MEDICA drugs) and its application in the treatment of Metabolic Syndrome, led the inventors to try and examine the effect of these drugs on another crucial risk factor in Metabolic Syndrome CVD patients, namely, the inflammatory indications. These indications are identified by markers like C-reactive protein (CRP), Serum amyloid A (SAA), fibrinogen and ICAM that promote atherosclerotic CVD. To evaluate the possible anti-inflammatory effect of MEDICA drugs, the inventors first examined the effect of M16αα, on the expression of different acute phase proteins (APP). Human liver cells (HepG2 cells) were stimulated with IL-6 and incubated with the MEDICA drug, M16αα. Total RNA was analyzed by real time PCR for expression of mRNA of different acute phase proteins (APP).
# [3] = tested on: HT29 colon cancer cells; experiment: HT29 cell number, trypan blue exclusion assay; format: cell-based; conditions: 200 μM, days 1, 2, 3 and 6
# Experimental: Abbreviations: D. (days) cont, (control), RCN (relative cell number).
# Cells were cultured in Dulbecco's Modified Eagle Medium (DMEM) supplemented with 10% fetal calf serum, glutamine and antibiotics (100,000 units/L penicillin and 100 mg/L streptomycin sulfate).
# The involvement of MEDICA drugs in signal transduction pathways related to immuno-modulatory mechanisms have led the inventors to further investigate the effect of the MEDICA drugs in different disorders associated with abnormal immune reaction. Since cancerous processes may be promoted as a result of interruption of the Th1/Th2 balance, the possible beneficial effect of the MEDICA drugs on tumor proliferation and progression have been next examined. The effect of different concentrations M16αα on cell proliferation was first examined in vitro using the HT29 colon cancer cells as a model for colon cancer. Cells were cultured in the presence of different concentrations of M16αα (50, 100, and 200 μM). Samples obtained from days 1, 2, 3 and 6 were analyzed for cell number using the trypan blue exclusion assay. Proliferation was measured by BrdU incorporation assay.
# [4] = tested on: RPMI8226 cells; experiment: Growth of Multiple Myeloma RPMI8226 cells, Trypan Blue exclusion; format: cell-based; conditions: 200 μM, from day one
# Experimental: Growth Suppression by M16αα of Multiple Myeloma (MM) cells. MM cells were incubated in RPMI 1640 medium in the presence of added M16αα as indicated. Cell number was determined daily by Trypan Blue exclusion.
# The inhibitory effect of MEDICA drugs on colon tumor cell proliferation, presumably via activation of apoptosis, encouraged the inventors to further investigate the potential beneficial effect of these compounds on other malignancies. The inventors therefore next examined the effect of the MEDICA drugs using the Multiple myeloma model. U-266 and RPMI-8226 cell lines served as cell models for MM. MM cells were incubated in RPMI 1640 medium in the presence of M16αα as indicated. Cell number was determined daily by Trypan Blue exclusion assay. […] It should be noted that generally, these cells were more sensitive even to lower concentrations of M16αα.
# [5] = 200 mM M16αα 40 h, IL-6 20 ng/ml last 15 h
smiles,measurement,setting,value
"CC(C)(CCCCCCCCCCCCC(C)(C)C(=O)O)C(=O)O [M16αα, 2,2,15,15-tetramethyl-hexadecanedioic acid]",LIF-induced phosphorylation of tyrosine 705 residue of STAT3,"[1]; 200 μM for 17 and 24 h, LIF 20 ng/ml",clearly inhibits
same,expression of STAT3 (total STAT3),[1]; [5],not affected
same,phosphorylation of STAT3 serine 727 residue,[1]; [5],significantly inhibited
same,fibrinogen mRNA levels,[2],clearly reduced
same,cell number (relative cell number),[3],significant reduction
same,cell number relative to control,[4],about 20 % of control
